Measured values reported in patent US20140187786A1, “1,3,4-TRISUBSTITUTED BENZENES” (EnVivo Pharmaceuticals, Inc., priority 2007, published 2014).

CC(C)CC(C(=O)O)c1ccc(-c2ccc(C(F)(F)F)cc2)c(OCC2CC2)c1 (stereo not shown) [Example 142, 2-(2-cyclopropylmethoxy-4′-trifluoromethyl-biphenyl-4-yl)-4-methyl-pentanoic acid]
melting point: 142 to 143 °C
